The values below come from publication PMC9289467, “A Novel Multifunctional 5,6-Dimethoxy-Indanone-Chalcone-Carbamate Hybrids Alleviates Cognitive Decline in Alzheimer’s Disease by Dual Inhibition of Acetylcholinesterase and Inflammation” (Frontiers in Aging Neuroscience, 2022).

One assay concerns the target T1, Aβ40 oligomers (Homo sapiens, UniProt P05067).
T1 construct: purchased Invitrogen 03-136
Briefly: Aβ40 self-oligomerization dot blot (A11 antibody). It counts as biochemical. To be noted: oligomer-specific antibody A11. The method, then: The formation of Aβ40 or Aβ42 oligomers was monitored by dot blot with oligomer-specific antibody. Briefly, the resulting Aβ film was dissolved in ddH2O to form a 100 μM solution, and then the oligomerization reaction ([Kayed et al., 2003]) was initiated in absence or presence of different concentrations of AP5. An aliquot (2 μL) of each solution was dripped on a nitrocellulose membrane. The membrane was blocked with 5% non-fat milk in TBS for 1 h, incubated with the anti-β amyloid (MOAB-2, NBP2-13075SS, Novus Biologicals, Colorado, United States), anti-amyloid oligomers (A11, NBP1-97930, Novus Biologicals), or anti-amyloid fibrils (OC, NBP1-97930, Novus Biologicals) antibodies overnight at 4°C. The membrane was then incubated using HRP-conjugated secondary antibodies at room temperature for 1 h and then developed with ECL.

Assay [1] has as its target T2, pre-formed Aβ40-AChE fibrils complex (Homo sapiens, UniProt P22303).
T2 construct: purchased Roche (AChE); Invitrogen (Aβ40) R005282 (AChE); 03-136 (Aβ40)
Briefly: Disaggregation of pre-formed Aβ40-AChE fibrils (ThT). In kind it is biochemical. The following applies: Aβ40 pre-aggregated with AChE for 2 days before co-incubation with AP5. How it is done: The effects of AP5 on Aβ fibril formation and pre-formed Aβ fibrils disaggregation were determined using a previously described method of Thioflavin T (ThT, T3516, Sigma Aldrich, St. Louis, MO, United States) fluorometry ([Jan et al., 2010]).
Supplementary materials and methods … ...1 […]
Supplementary Figure 1 … .....7
Supplementary Figure 2 … .....7
Supplementary materials and methods
Prepations ofspecimen for pharmacokinetics analysis
24 h afterdosing. Brains were collected at0, 0.25, 0.5,2, 4,8 and 24 h after administration.Plasma extractions were performed by adding 90 μL methanol and 2 μL internalstandard letrozole (500 ng/mL) to a30 µL plasma sample. […]
Then 90 μL methanol and 2 μL letrozolewere added to 30 µl brainhomogenates. The samples were vortexed for 3 min and centrifuged 15 min at25,000 g.The plasma and brainhomogenate were analyzed by UPLC-TSQ/MS (Thermo Fisher Scientific, Waltham, MA, USA). […]
To study the kinetics of Aβ-AChE fibril complex formation, 10 μM Aβ was mixed with AChE (R005282, Roche, Basel, Switzerland) and different concentrations AP5 and incubated with 10 μM ThT and 50 mM glycine-NaOH (pH 8.5) at 37°C, the ThT fluorescence was continually measured for 24 h at 30 min intervals. […] Fluorescence emission at485 nm was measured on a Spectra MAX GeminiXS fluorometerat an excitation wavelength of 450 nm. […]

The next assay has as its system C3 within astrocytes. The assay is described as follows: C3 and GFAP co-immunostaining (A1 astrocyte marker). It counts as in vivo. The following applies: AP5-treated vs APP/PS1 mice. The method, then: APP/PS1 mice of ages 6 months were randomly divided into vehicle (APP/PS1, n = 10) and treatment groups (AP5, n = 10), which were intragastrically administered with AP5 (40 mg/kg) once daily for consecutive 5 months. AP5 was dissolved in distilled water containing 1% sodium carboxymethyl cellulose.
The fixed hemibrains were paraffin-embedded and sectioned in the coronal plane. The slices were deparaffinized with xylene and rehydrated by a series of gradient alcohols. Antigen retrieval through microwave boiling was performed with 10 mM sodium citrate solution at pH 6.0. The slices were cooled down to room temperature and then rinsed in PBS solution. […]
(1:100, BAF2655, R&D, Minneapolis, MN, USA). […] For the quantification of Aβ plaque-associated microglia and astrocyte, Iba1- and GFAP-immunopositive cells around plaques were counted. On each slide, ten plaques were randomly determined and the microglia (nuclei) in the immediate vicinity (two times the plaque diameter) of each plaque were counted. For colocalization of PSD95 and synaptophysin, images were analyzed with the puncta analyzer plugin with a minimum pixel specification of 4 in Image Jand thresholding was consistent for every image. […]
anti-synaptophysin (1:1000, 67864-1-lg, Proteintech) overnight at 4°C. […] Densitometric analysis was performed using Quantity One software (Bio-Rad, Berkeley, CA, USA). […]

T2 sequence (P22303 32-614, one chain of several): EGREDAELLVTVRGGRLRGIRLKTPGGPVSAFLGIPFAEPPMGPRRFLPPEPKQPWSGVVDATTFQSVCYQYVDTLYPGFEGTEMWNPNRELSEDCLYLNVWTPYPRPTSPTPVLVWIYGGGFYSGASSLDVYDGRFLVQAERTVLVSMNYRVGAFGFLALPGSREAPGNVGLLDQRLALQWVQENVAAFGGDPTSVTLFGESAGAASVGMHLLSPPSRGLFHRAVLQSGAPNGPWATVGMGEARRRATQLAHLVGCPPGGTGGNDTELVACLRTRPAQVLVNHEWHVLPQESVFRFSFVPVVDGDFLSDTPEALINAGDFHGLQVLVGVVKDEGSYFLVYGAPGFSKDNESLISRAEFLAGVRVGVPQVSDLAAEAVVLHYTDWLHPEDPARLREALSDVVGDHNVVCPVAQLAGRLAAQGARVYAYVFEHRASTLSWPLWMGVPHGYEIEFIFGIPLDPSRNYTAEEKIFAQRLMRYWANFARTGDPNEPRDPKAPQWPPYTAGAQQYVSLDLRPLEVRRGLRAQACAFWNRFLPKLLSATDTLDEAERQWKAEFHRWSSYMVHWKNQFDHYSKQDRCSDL
T1 sequence (P05067 672-711 limits assumed): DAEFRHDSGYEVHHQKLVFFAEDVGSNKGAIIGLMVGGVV

Take `CCN(C)C(=O)Oc1cccc(/C=C2\Cc3cc(OC)c(OC)cc3C2=O)c1` [AP5, (E)-3-((5,6-dimethoxy-1-oxo-1,3-dihydro-2H-inden-2-ylidene)-methyl)phenylethyl(methyl)carbamate]: at Aβ40 oligomers, the “levels of oligomeric Aβ40” value is listed as “decreased the levels”. For the same compound, in assay [1], the “ThT fluorescence intensity, disaggregation of pre-formed Aβ40 fibrils” value was “marked decline of ThT fluorescence intensity”. For the same compound, the “C3-positive area within the astrocytes” value in the assay with C3 within astrocytes is recorded as “markedly reduced”.
